Source: ChEMBL document CHEMBL1140021, “Ferulic acid and benzothiazole dimer derivatives with high binding affinity to beta-amyloid fibrils” (Bioorg Med Chem Lett, 2007)

Test: Displacement of [125I]TZDM from human beta amyloid fibril 1-42

| Ki | Compound |
| --- | --- |
| 0.69 nM | Nc1ccc2nc(NCCNc3nc4ccc(N)cc4s3)sc2c1 |
| > 10 nM | CS(=O)(=O)c1ccc2nc(NCCNc3nc4ccc(S(C)(=O)=O)cc4s3)sc2c1 |
| 0.64 nM | CN(CCN(C)c1nc2ccc(Cl)cc2s1)c1nc2ccc(Cl)cc2s1 |
| 1 nM | COc1cc(/C=C/C(=O)O)ccc1OCCOc1ccc(N(C)C)cc1OC |
| 0.77 nM | COc1cc(/C=C/C(=O)O)ccc1O [FERULATE] |
| 0.57 nM | COc1cc(/C=C/C(=O)O)ccc1OCCOc1ccc(N(CC(=O)O)CC(=O)O)cc1OC |
| 0.72 nM | COc1cc(/C=C/C(=O)O)ccc1N(C)CCN(C)c1ccc(/C=C/C(=O)O)cc1OC |
| 1.11 nM | Brc1ccc2nc(NCCNc3nc4ccc(Br)cc4s3)sc2c1 |
| 0.75 nM | Fc1ccc2nc(NCCNc3nc4ccc(F)cc4s3)sc2c1 |
| 1.36 nM | COc1cc(/C=C/C(=O)O)ccc1N1CCN(c2ccc(/C=C/C(=O)O)cc2OC)CC1 |
| 0.69 nM | CN(CCN(C)c1nc2ccc(N)cc2s1)c1nc2ccc(N)cc2s1 |
| 0.6 nM | COc1cc(/C=C/C(=O)O)ccc1OCCOc1ccc(/C=C/C(=O)O)cc1OC |
| 0.53 nM | CN(CCN(C)c1nc2ccccc2s1)c1nc2ccccc2s1 |
| 0.96 nM | Clc1ccc2nc(NCCNc3nc4ccc(Cl)cc4s3)sc2c1 |
| 0.77 nM | [11CH3]Nc1ccc(-c2nc3ccc(O)cc3s2)cc1 [PITTSBURGH COMPOUND B] |
| 0.55 nM | CN(CCN(C)c1nc2ccc(S(C)(=O)=O)cc2s1)c1nc2ccc(S(C)(=O)=O)cc2s1 |
| 0.55 nM | CN(CCN(C)c1nc2ccc(Br)cc2s1)c1nc2ccc(Br)cc2s1 |
| 1.37 nM | CN(CCN(C)c1nc2ccc(F)cc2s1)c1nc2ccc(F)cc2s1 |
| 0.81 nM | Cc1ccc2nc(NCCNc3nc4ccc(C)cc4s3)sc2c1 |
| 0.61 nM | Cc1ccc2nc(N(C)CCN(C)c3nc4ccc(C)cc4s3)sc2c1 |
| 0.71 nM | c1ccc2sc(NCCNc3nc4ccccc4s3)nc2c1 |
